From publication PMC12257544, “Fluorescent Isostere (Fluostere) of the Carboxylate: Design of hDHODH Fluorescent Inhibitors as Proof of Concept” (Journal of Medicinal Chemistry, 2025)

What was measured:
Experimental pKa = assay type: physicochemical
[1] = Photophysical characterization (absorption, emission, QY, lifetime); assay type: physicochemical; details: in ACN
Experimental: UV–Vis absorption spectra were recorded on a Cary60 spectrometer. Photoemission spectra, luminescence lifetimes, and quantum yields were acquired with a HORIBA Jobin Yvon IBH Fluorolog-TCSPC spectrofluorometer equipped with a Quanta-φ integrating sphere. […] Emission-decay data were collected in 2048 channels to 10000 counts in the peak channel. IRF was measures using colloidal silica suspension in H2O to scatter light. Data were analyzed with the software DAS6 (TCSPC decay-analysis software) using a nonlinear least-squares method to fit of the decay to a sum of exponentials. The value of χ^2, residuals and the autocorrelation function (Durbin-Watson parameter) were used to determine the quality of the fit. For measurements in the presence of hDHODH, 11a was incubated, at 1 μM concentration in TRIS Buffer 0.1 mM (pH 8) with 0.1% DMSO, alone or with different concentrations of recombinant protein ranging from 31.5 to 504 nM concentration. After 5 min incubation UV–Vis absorption spectra were recorded on a Cary60 spectrophotometer and photoemission spectra were acquired with a HORIBA Jobin Yvon IBH Fluorolog-TCSPC spectrofluorometer with excitation λ of 366 nm and maximum of emission at 500 nm; a.u. data were analyzed with GraphPad Prism using One Site – Specific Binding equation.

pKa (Experimental pKa): 5.39
Lifetime [1]: 7 ns
QY (luminescence quantum yield) [1]: 0.42
Stokes shift [1]: 5139 cm^–1
λabs [1]: 313 nm
λem [1]: 373 nm
Compound: CCOC(=O)c1c(O)nn2ccccc12 [Compound 2, Ethyl 2-hydroxypyrazolo[1,5-a]pyridine-3-carboxylate]
